Data as given in PubChem BioAssay AID248 (DTP/NCI, 2004).
Where “and” joins values, the source holds several entries; their conditions need not be identical. Equal values may be shown once. Inconclusive results and toxic doses are left out.

System: L1210 leukemia ip in BDF1 mice, survival T/C
Assay: NCI In Vivo Anticancer Drug Screen. Data for tumor model L1210 Leukemia (intraperitoneal) in B6D2F1 (BDF1) mice
Details: endpoint: mean survival time, higher = longer survival
Method in brief: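 In this screen, tumor-bearing mice given compound are compared to those given vehicle, and their survival values are reported as a treated-to-control quotient.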

[1] = dose: 100.0 mg/kg/injection, schedule: Q01DX009 (ip), vehicle: saline
[2] = dose: 200.0 mg/kg/injection, schedule: Q01DX009 (ip), vehicle: saline
[3] = dose: 400.0 mg/kg/injection, schedule: Q01DX009 (ip), vehicle: saline
[4] = dose: 100.0 mg/kg/injection, schedule: Q01DX001 (ip), vehicle: saline
[5] = dose: 200.0 mg/kg/injection, schedule: Q01DX001 (ip), vehicle: saline
[6] = dose: 400.0 mg/kg/injection, schedule: Q01DX001 (ip), vehicle: saline
[7] = dose: 50.0 mg/kg/injection, schedule: Q01DX009 (ip), vehicle: saline
[8] = dose: 100.0 mg/kg/injection, schedule: Q04DX003 (ip), vehicle: saline
[9] = dose: 200.0 mg/kg/injection, schedule: Q04DX003 (ip), vehicle: saline
[10] = dose: 400.0 mg/kg/injection, schedule: Q04DX003 (ip), vehicle: saline
[11] = dose: 100.0 mg/kg/injection, schedule: Q04DX003 (ip), vehicle: Klucel (hydroxypropylcellulose) (HPC)
[12] = dose: 100.0 mg/kg/injection, schedule: Q04DX003 (ip), vehicle: saline with Tween-80
[13] = dose: 200.0 mg/kg/injection, schedule: Q04DX003 (ip), vehicle: saline with Tween-80
[14] = dose: 400.0 mg/kg/injection, schedule: Q04DX003 (ip), vehicle: saline with Tween-80
[15] = dose: 200.0 mg/kg/injection, schedule: Q04DX003 (ip), vehicle: Klucel (hydroxypropylcellulose) (HPC)

With `CCSC(C(O)C(O)C(O)CO)n1ccc(N)nc1=O` (configuration not stated) the T/C (dose: 100.0 mg/kg/injection, schedule: Q01DX005 (ip), vehicle: saline) was 101 % of control and 104 % of control, the T/C [1] was 106 % of control and 109 % of control and the T/C (dose: 200.0 mg/kg/injection, schedule: Q01DX005 (ip), vehicle: saline) was 95 % of control and 98 % of control and 101 % of control. The T/C [2] was 106 % of control and 98 % of control and the T/C [3] was 112 % of control and 102 % of control.

In the case of `Cc1cc(CCNC=O)c(C)c2c1sc1ccccc12`, the T/C (dose: 50.0 mg/kg/injection, schedule: Q01DX001 (ip), vehicle: saline) is reported as 97 % of control, the T/C [4] is reported as 97 % of control and the T/C [5] is reported as 92 % of control. The T/C [6] was 94 % of control.

For `CS(=O)(=O)OCCCOS(C)(=O)=O`, the T/C (dose: 9.37 mg/kg/injection, schedule: Q01DX009 (ip), vehicle: Klucel (hydroxypropylcellulose) (HPC)) was 101 % of control, the T/C (dose: 18.75 mg/kg/injection, schedule: Q01DX009 (ip), vehicle: Klucel (hydroxypropylcellulose) (HPC)) was 102 % of control and the T/C (dose: 37.5 mg/kg/injection, schedule: Q01DX009 (ip), vehicle: Klucel (hydroxypropylcellulose) (HPC)) was 106 % of control. For the same molecule, the T/C (dose: 75.0 mg/kg/injection, schedule: Q01DX009 (ip), vehicle: Klucel (hydroxypropylcellulose) (HPC)) was 116 % of control and the T/C (dose: 150.0 mg/kg/injection, schedule: Q01DX009 (ip), vehicle: Klucel (hydroxypropylcellulose) (HPC)) was 90 % of control.

In the case of `CCN(CC)CCOc1cccc(OC)c1`, the T/C (dose: 25.0 mg/kg/injection, schedule: Q01DX009 (ip), vehicle: saline) is reported as 95 % of control, the T/C [7] is reported as 96 % of control and the T/C (dose: 75.0 mg/kg/injection, schedule: Q01DX009 (ip), vehicle: saline) is reported as 95 % of control and 108 % of control.

For `Nc1nc2c(ncn2CCC(N)C(=O)O)c(=O)[nH]1` (configuration not stated), the T/C [8] was 104 % of control, the T/C [9] was 98 % of control and the T/C [10] was 107 % of control.

In the case of `CNC(=O)c1cc(NC(=O)Nc2ccc(C3=NCCN3)cc2)cc(NC(=O)Nc2ccc(C3=NCCN3)cc2)c1`, the T/C (dose: 15.0 mg/kg/injection, schedule: Q01DX Z (ip), vehicle: saline) is reported as 122 % of control, the T/C (dose: 60.0 mg/kg/injection, schedule: Q01DX Z (ip), vehicle: saline) is reported as 216 % of control and the T/C (dose: 60.0 mg/kg/injection, schedule: Q01DX Z (oral), vehicle: saline) is reported as 103 % of control. For the same molecule, the T/C (dose: 120.0 mg/kg/injection, schedule: Q01DX Z (ip), vehicle: saline) was 114 % of control, the T/C (dose: 120.0 mg/kg/injection, schedule: Q01DX Z (oral), vehicle: saline) was 98 % of control and the T/C (dose: 240.0 mg/kg/injection, schedule: Q01DX Z (oral), vehicle: saline) was 106 % of control. For the same molecule, the T/C (dose: 480.0 mg/kg/injection, schedule: Q01DX Z (oral), vehicle: saline) was 93 % of control.

With `COc1cc(C=NC(CO)C(=O)O)ccc1O.COc1cc(C=NC(CO)C(=O)O)ccc1O.[Fe]` (configuration not stated) the T/C [1] was 92 % of control, the T/C [8] was 88 % of control and the T/C [2] was 92 % of control. The T/C [9] was 95 % of control, the T/C [3] was 95 % of control and the T/C [10] was 93 % of control.

With `O=C1c2ccccc2C(Cl)=C(Cl)C1(Cl)Cl` the T/C (dose: 25.0 mg/kg/injection, schedule: Q01DX009 (ip), vehicle: Klucel (hydroxypropylcellulose) (HPC)) was 90 % of control, the T/C (dose: 50.0 mg/kg/injection, schedule: Q01DX009 (ip), vehicle: Klucel (hydroxypropylcellulose) (HPC)) was 90 % of control and the T/C (dose: 100.0 mg/kg/injection, schedule: Q01DX009 (ip), vehicle: Klucel (hydroxypropylcellulose) (HPC)) was 90 % of control. The T/C [11] was 96 % of control.

With `Cc1nc(N)[nH]c(=O)c1CCCNc1ccc(F)cc1` the T/C (dose: 25.0 mg/kg/injection, schedule: Q01DX001 (ip), vehicle: saline with Tween-80) was 95 % of control, the T/C (dose: 50.0 mg/kg/injection, schedule: Q01DX001 (ip), vehicle: saline with Tween-80) was 93 % of control and the T/C (dose: 100.0 mg/kg/injection, schedule: Q01DX001 (ip), vehicle: saline with Tween-80) was 92 % of control.

For `CC1(C)CC(=O)C=C(N2CCC(CCCC3CCN(C4=CC(=O)CC(C)(C)C4)CC3)CC2)C1`, the T/C (dose: 50.0 mg/kg/injection, schedule: Q04DX003 (ip), vehicle: saline with Tween-80) was 94 % of control, the T/C [12] was 102 % of control and the T/C [13] was 88 % of control.

`CC1CC(C)CC(C(O)C2CCCCC2)C1` (configuration not stated) was tested, and the T/C (dose: 75.0 mg/kg/injection, schedule: Q01DX001 (ip), vehicle: other) was 101 % of control and the T/C (dose: 150.0 mg/kg/injection, schedule: Q01DX001 (ip), vehicle: other) was 106 % of control.

With `C1COB(OCCNCCOB2OCCNCCO2)OCCN1` the T/C (dose: 100.0 mg/kg/injection, schedule: Q01DX009 (ip), vehicle: carboxymethylcellulose (CMC)) was 100 % of control, the T/C (dose: 100.0 mg/kg/injection, schedule: Q04DX002 (ip), vehicle: carboxymethylcellulose (CMC)) was 98 % of control and 101 % of control and the T/C (dose: 100.0 mg/kg/injection, schedule: Q04DX003 (ip), vehicle: carboxymethylcellulose (CMC)) was 100 % of control. The T/C (dose: 200.0 mg/kg/injection, schedule: Q01DX009 (ip), vehicle: carboxymethylcellulose (CMC)) was 97 % of control and 106 % of control, the T/C (dose: 200.0 mg/kg/injection, schedule: Q04DX002 (ip), vehicle: carboxymethylcellulose (CMC)) was 95 % of control and 103 % of control and the T/C (dose: 200.0 mg/kg/injection, schedule: Q04DX003 (ip), vehicle: carboxymethylcellulose (CMC)) was 104 % of control. The T/C (dose: 400.0 mg/kg/injection, schedule: Q01DX009 (ip), vehicle: carboxymethylcellulose (CMC)) was 100 % of control, the T/C (dose: 400.0 mg/kg/injection, schedule: Q04DX002 (ip), vehicle: carboxymethylcellulose (CMC)) was 103 % of control and 106 % of control and the T/C (dose: 400.0 mg/kg/injection, schedule: Q04DX003 (ip), vehicle: carboxymethylcellulose (CMC)) was 100 % of control.

With `COc1cc(OC)c2cc1Cc1cc(c(OC)cc1OC)Cc1cc(c(OC)cc1OC)Cc1cc(c(OC)cc1OC)C2` the T/C [1] was 94 % of control, the T/C [2] was 86 % of control and the T/C [3] was 86 % of control.

With `CC12CCC(O)CC1=CCC1C2CCC2(C)C(C(O)CC(O)(C(F)(F)F)C(F)(F)F)CCC12` (configuration not stated) the T/C [12] was 92 % of control, the T/C [13] was 93 % of control and the T/C [14] was 93 % of control.

With `C=CS(=O)Cc1ccccc1` (configuration not stated) the T/C (dose: 12.5 mg/kg/injection, schedule: Q04DX002 (ip), vehicle: saline) was 112 % of control, the T/C (dose: 25.0 mg/kg/injection, schedule: Q04DX002 (ip), vehicle: saline) was 94 % of control and the T/C (dose: 50.0 mg/kg/injection, schedule: Q04DX002 (ip), vehicle: saline) was 98 % of control.

With `CCc1cccc2c1C(=O)OC2=O` the T/C [1] was 94 % of control and the T/C [2] was 91 % of control.

With `COc1ccc2c(c1)OC(C)(C)C(c1ccccc1)C2c1ccc(OCCN2CCCC2)cc1` (configuration not stated) the T/C [12] was 119 % of control, the T/C [13] was 94 % of control and the T/C [14] was 95 % of control.

For `C[CH2][Pb]([CH2]C)([CH2]C)[O]S(=O)(=O)c1ccc(C)cc1`, the T/C (dose: 1.56 mg/kg/injection, schedule: Q01DX009 (ip), vehicle: saline with Tween-80) was 95 % of control and the T/C (dose: 3.13 mg/kg/injection, schedule: Q01DX009 (ip), vehicle: saline with Tween-80) was 96 % of control.

In the case of `CN(C)c1ccc(N2C(=O)C=CC2=O)cc1`, the T/C (dose: 6.25 mg/kg/injection, schedule: Q01DX001 (ip), vehicle: saline with Tween-80) is reported as 104 % of control and the T/C (dose: 12.5 mg/kg/injection, schedule: Q01DX001 (ip), vehicle: saline with Tween-80) is reported as 105 % of control.

`CCNC(=O)N=C1SCCS1` was tested, and the T/C (dose: 100.0 mg/kg/injection, schedule: Q04DX002 (ip), vehicle: saline) was 118 % of control, the T/C (dose: 200.0 mg/kg/injection, schedule: Q04DX002 (ip), vehicle: saline) was 118 % of control and the T/C (dose: 400.0 mg/kg/injection, schedule: Q04DX002 (ip), vehicle: saline) was 96 % of control.

With `COc1ccc(OC)c(NC(=O)Nc2ccc([As](=O)(O)O)cc2)c1` the T/C (dose: 50.0 mg/kg/injection, schedule: Q04DX003 (ip), vehicle: Klucel (hydroxypropylcellulose) (HPC)) was 96 % of control, the T/C [11] was 100 % of control and the T/C [15] was 93 % of control and 88 % of control.

`S=C(SNC1CCCCC1)SNC1CCCCC1` was tested, and the T/C [4] was 103 % of control, the T/C [11] was 114 % of control and the T/C [5] was 94 % of control. For the same molecule, the T/C [15] was 105 % of control, the T/C [6] was 105 % of control and the T/C (dose: 400.0 mg/kg/injection, schedule: Q04DX003 (ip), vehicle: Klucel (hydroxypropylcellulose) (HPC)) was 107 % of control.

In the case of `CCCCCCCCCCCCCCCCCC1=NC(C)CC(C)(C)O1` (configuration not stated), the T/C [7] is reported as 93 % of control, the T/C [4] is reported as 89 % of control and the T/C [1] is reported as 94 % of control. The T/C [8] was 86 % of control, the T/C [5] was 95 % of control and the T/C [2] was 96 % of control. For the same molecule, the T/C [9] was 94 % of control and the T/C [6] was 91 % of control.
